Patent US20260199294A1, “PEPTIDE DRUG CONJUGATES” (Oncopeptides Innovation AB, priority 2022, published 2026)

System: MM.1S cells
Test: DNA fragmentation, APO-BrdU TUNEL assay by FACS
Assay type: cell-based, human
Procedure: Method: 1×10^6 MM.1S cells (CRL-2974, ATCC) were treated with Example compound 1 or Bendamustine at 0.006, 0.06, 0.6 or 6 μM for 24 h. After incubation, the cells were washed with PBS (10010-015, Gibco), fixed in Flow Cytometry Fixation Buffer (FC004, R&D Systems) for 10 min and stored in 70% ethanol at −20° C. overnight. The deoxythymidine analog (BrdUTP) was present in the experiment and served to label the DNA break sites. Next day, the cells were washed and stained using an APO-BrdU™ TUNEL Assay Kit, according to the manufacturer's protocol (A23210, Invitrogen), followed by the analysis using BD FACSCanto™ II. The percentage ofTUNEL positive cells indicates the percentage of cells with fragmented DNA.

CCOC(=O)[C@H](CC(C)C)NC(=O)[C@@H](N)CCc1nc2cc(N(CCCl)CCCl)ccc2n1C [Example compound 1, Ethyl (2S)-2-[[(2S)-2-amino-4-[5-[bis(2-chloroethyl)amino]-1-methyl-benzimidazol-2-yl]butanoyl]amino]-4-methyl-pentanoate]
cells with DNA breaks (0.6 μM for 24 h): > 90%
dose response effect on DNA damage (TUNEL positive cells) (0.006, 0.06, 0.6 or 6 μM for 24 h): induced DNA damage in a dose-dependent manner
